Patent US20040204390A1, “Pharmaceutical combination comprising an anti-androgen and an oestrogen receptor beta agonist” (priority 2001, published 2004)

How the values were obtained:
estrogen receptor = test: Scatchard analysis of ligand binding affinity on receptor-programmed reticulocyte lysate; details: Scatchard analysis at receptor dilutions giving signal:noise ~10
Procedure: The volume of receptor-programmed reticulocyte lysate to be added to the binding assay can be determined independently from two measurements made on each batch of receptor prepared. First, Kis are determined for standard compounds using a series of dilutions of the receptor preparation. Scatchard analysis of ligand binding affinity is performed at the receptor dilutions that produced reported Kis for these compounds and an acceptable signal:noise ratio (˜10).

[1] = humans, single agent therapy, circulating in the blood; Blackledge et al, Urology 1996; cited from earlier work

| Compound | Kd (estrogen receptor) | basal level of total testosterone [1] |
| --- | --- | --- |
| CC12CCC3c4ccc(O)cc4CCC3C1CC([125I])C2O (stereo not drawn) [[^125I]-estradiol, [^125I]-16α-iodo-3,17β-estradiol] | 100 to 1000 pM | – |
| CC(O)(CS(=O)(=O)c1ccc(F)cc1)C(=O)Nc1ccc(C#N)c(C(F)(F)F)c1 (stereo not drawn) [bicalutamide, 4′-cyano-α′,α′,α′-trifluoro-3-(4-fluorophenylsulphonyl)-2-hydroxy-2-methylpropiono-m-toluidide] | – | approximate doubling |
